These results are taken from ChEMBL document CHEMBL2034921, “5-(5-(6-[(11)C]methyl-3,6-diazabicyclo[3.2.0]heptan-3-yl)pyridin-2-yl)-1H-indole as a potential PET radioligand for imaging cerebral α7-nAChR in mice” (Bioorg Med Chem, 2012).

What all share (format): ADME, organism-based
The test system of data set [1] is Mus musculus. As to the kind of experiment: Biodistribution in CD1 mouse frontal cortex at 0.1 mCi, iv at 30 mins by gamma counting. To be noted: in vivo, 0.5 h.
Data set [2] relates to Thalamus. Kind of data set: Biodistribution in CD1 mouse thalamus at 0.1 mCi, iv at 30 mins by gamma counting. The conditions noted are these: in vivo, 0.5 h.
The subject of data set [3] is Striatum. Kind of data set: Biodistribution in CD1 mouse striatum at 0.1 mCi, iv at 30 mins by gamma counting. The conditions noted are these: in vivo, 0.5 h.
Data set [4] relates to Hippocampus. Kind of data set: Biodistribution in CD1 mouse hippocampus at 0.1 mCi, iv at 30 mins by gamma counting. The conditions noted are these: in vivo, 0.5 h.
Data set [5] deals with Mus musculus. As to the kind of experiment: Biodistribution in CD1 mouse frontal cortex at 3.7 MBq, iv after 90 mins in presence of 0.5 mg/kg, sc of PHA543613. The conditions noted are these: in vivo, 1.5 h. More on the design: dose 0.5 mg/kg, route intravenous.
The subject of data set [6] is Hippocampus. As to the kind of experiment: Biodistribution in CD1 mouse hippocampus at 3.7 MBq, iv after 90 mins in presence of 0.5 mg/kg, sc of PHA543613. More on the design: dose 0.5 mg/kg, route intravenous. The conditions noted are these: in vivo, 1.5 h.

`[11CH3]N1CC2CN(c3ccc(-c4ccc5[nH]ccc5c4)nc3)CC21` (racemic): the Drug uptake entry in data set [1] was “Active”; in data set [2], “Active”; in data set [3], “Active”; in data set [4], “Active”; in data set [5], “Not Active”; in data set [6] it was “Not Active”.
